Several values for one entry are separate records, joined by “and”; a condition that tells them apart may be missing. Equal entries are not always repeated.

One test deals with T-lymphocytes. The test can be described thus: E-rosette test in immunosuppressed guinea pigs. In kind it is in vivo, guinea pig. The source says: Guinea pig's T-lymphocytes bind rabbits erythrocytes on their surface, this ability is used to observe the dynamics of changes in the number of T-lymphocytes. The number of the human T-lymphocytes is one of the parameters of evaluation of cellular immunity in the clinical immunology. […] The first step was to determine the number of T-lymphocytes by using the E-rosette assay in the 8 Guinea pigs in the weight range 260-310 g. The second step was to decrease the number of T-lymphocytes. This was done using the immunosuppressant Azathioprin. The application of this is per os for 7 of the guinea pigs. The 8th guinea pig will be used as a control without application of the immunosuppressant. The second determination of the T-lymphocytes followed 7 days after the application of the immunosuppressant. […] One of the suppressed guinea pigs was used as a control suppressed animal.
The level of E-rosettes was determined on the first day from the blood of 12 experimental guinea pigs. On the second day, 8 animals (group A) were treated i.p. with oxoplatin as an anti-tumor agent and 3 animals (group B) were treated with double the dose of oxoplatin. The final guinea pig was used as a control. The level of E-rosettes was determined 5 days later.
The level of the E-rosettes in 3 guinea pigs with low values of E-rosettes was determined again at day 35.
The level of E-rosettes in 9 experimental guinea pigs was determined on the 1st day. On the second day 8 animals were injected with Campto and one was without application. The level of E-rosettes in all guinea pigs was determined on the 7th day of experiment. […] On day 22 of the experiment one guinea pig had E-rosette production determined. The level of E-rosettes was then determined again in all animals on day 29.
The level of E-rosettes in 9 experimental guinea pigs was determined on the first day. On the second day, 8 guinea pigs were injected with Taxol. The level of E-rosettes was determined again on the 7th day of experimentation. […] The level of E-rosettes in all guinea pigs was determined on the 29th day.
The level of the E-rosettes in 10 experimental guinea pigs was determined on the first day. On the second day, 9 guinea pigs were injected with Eloxatin. The level of E-rosettes were determined on the 7th day of experimentation. […] The final level of E-rosettes was then determined on the 30th day of experimentation.

A further test deals with human PBMC. The test is described as follows: Lymphocyte proliferation in vitro (Stimulation index, Thymidine uptake). The conditions noted are these: PHA positive control. It is filed as cell-based. Here is the method:
T-lymphocyte activation can be assessed directly by: • a) De novo expression or increase of activation markers such as CD69 on T lymphocytes (CD69+/CD4+ cells) after 4 hours activation • b) Measuring blastogenesis and/or proliferation of cells to phytomitogens (such as Phytohemagglutinin, PHA), common antigens or other substances evaluated 72 hours after activation • c) Antigen-induced release of cytokines (in this case the preparation-induced intra-cellular expression of IFNg in CD4+ T lymphocytes) Methods
Heparinized venous blood from 5 healthy volunteers (women, aged 35-52 years) has been used for the performance of the following investigations:
In vitro proliferation of PBMC from 5 healthy individuals is presented as Stimulation index in Table 2. The PHA-induced proliferation, used here as a positive control, verified good culturing conditions, as it is shown mean proliferation index 184.5±142.8 at 72 hours. As it is expected, at 6 day SI of PHA stimulation is dropping (it is a mitogen), but the cell cultures were intact.
That is why we tested it's stimulation activity at 3 days and 6 days activation period.

The subject of a further test is CD4+ T lymphocytes. The test is described as follows: Intracellular staining for IFNg and CD69 expression on CD4+ lymphocytes in whole blood. The conditions noted are these: for % CD69+ cells / % CD69+/IFNg+ cells: CD4+ lymphocytes, 0.5 ml blood + 50 μg preparation or 10 μg PHA. It is filed as cell-based, human. As for the experimental part:
Briefly, whole peripheral blood was collected into sodium heparin. […] Addition of 10 μl Brefeldin A (Sigma, 10 μg/ml) to all tubes. Incubation for new 4 hours at 37° C., 5% CO2. Brefeldin A is an agent which arrest produced cytokine intracellular. Surface and intracellular staining for T-lymphocytes was performed according to the manufacturer rules with monoclonal antibodies against CD3, CD4, CD69 and IFNg from FastImmune CD4 Intracellular Cytokine Detection kit (BD). Red blood cells were lysed with FACS Lysing solution for 10 min. at room temperature. Permeabilization of lymphocytes was achieved using FACS Permeabilizing solution (BD) for 10 min. The activation and intracellular cytokine expression was evaluated by the staining with CD4/CD69/IGNg monoclonal antibodies

Turning to `N.N.[Cl-].[Cl-].[OH-].[OH-].[Pt+4]` [oxoplatin], the “decrease of production of E-rosettes after application of oxoplatin” value in the test on T-lymphocytes (Experiment 1, i.p., determined 5 days later) is 27.4%.
For `O=C1[O][Pt]2([NH][C@@H]3CCCC[C@H]3[NH]2)[O]C1=O` [Eloxatin], the “decrease of formation of E-rosettes after application of Eloxatin” value in the test with T-lymphocytes (Experiment 4, injected day 2, determined 7th day) stood at 22%.
In the case of Phytohemagglutinin [PHA], the “Stimulation index (PBMC proliferation)” value was determined as 184.5±142.8 in the test on human PBMC (Mean of donors, 3 days (72 hours)); 184.33 with human PBMC (Mean of donors, 3 days (72 hours), listed as PHA(+)); 51.97 in the test on human PBMC (Mean of donors, 6 days); 77.3 with human PBMC (donor four, 3 days); 61.09 in the test on human PBMC (donor four, 6 days); 417 in the test with human PBMC (donor one, 3 days). Also, the “Stimulation index (PBMC proliferation)” value is 33 in the test on human PBMC (donor one, 6 days); 114.65 in the test with human PBMC (donor six, 3 days); 25.11 in the test on human PBMC (donor six, 6 days); 87.38 in the test on human PBMC (donor three, 3 days); 119.9 in the test on human PBMC (donor three, 6 days); 225.3 with human PBMC (donor two, 3 days). The “Stimulation index (PBMC proliferation)” value with human PBMC (donor two, 6 days) stood at 20.74. Further, the “% CD69+ cells” value worked out at 83.54% with CD4+ T lymphocytes (Mean of 6 donors); 78.46% in the test on CD4+ T lymphocytes (donor five); 87.87% in the test on CD4+ T lymphocytes (donor four); 89.58% in the test on CD4+ T lymphocytes (donor one); 90.03% with CD4+ T lymphocytes (donor six); 86.39% with CD4+ T lymphocytes (donor three). Further, in the test with CD4+ T lymphocytes (donor two), the “% CD69+ cells” value worked out at 68.91%. For the same compound, the “% CD69+/IFNg+ cells” value in the test with CD4+ T lymphocytes (Mean of 6 donors) was 4.97±5.75% and 4.97%; in the test with CD4+ T lymphocytes (donor five) it was 2.45%; in the test with CD4+ T lymphocytes (donor four), 2.87%; in the test on CD4+ T lymphocytes (donor one) it was 0.49%; with CD4+ T lymphocytes (donor six) it was 16.42%; in the test with CD4+ T lymphocytes (donor three), 4.39%. Further, the “% CD69+/IFNg+ cells” value in the test with CD4+ T lymphocytes (donor two) came out at 3.18%. Moreover, in the test with CD4+ T lymphocytes (after 4 hours stimulation, healthy individuals), the “PHA induced % CD69+ cells” value is given as “over 80%”.
With `CCc1c2c(nc3ccc(OC(=O)N4CCC(N5CCCCC5)CC4)cc13)-c1cc3c(c(=O)n1C2)COC(=O)[C@]3(O)CC` [Campto], the “decrease of production of E-rosettes after application of Campto” value in the test on T-lymphocytes (Experiment 2, injected day 2, determined 7th day) is listed as 22.7%.
For `CC(=O)O[C@H]1C(=O)[C@@]2(C)[C@H]([C@H](OC(=O)c3ccccc3)[C@]3(O)C[C@H](OC(=O)[C@H](O)[C@@H](NC(=O)c4ccccc4)c4ccccc4)C(C)=C1C3(C)C)[C@]1(OC(C)=O)CO[C@@H]1C[C@@H]2O` [Taxol], in the test on T-lymphocytes (Experiment 3, injected day 2, determined 7th day), the “decrease of production of E-rosettes after application of Taxol” value is listed as 16%.

The record behind these values is US20060067942A1, “Pharmaceutical agent comprising amino acids, peptides, proteins and/or fractions and fragments thereof and the use of same in the prophylaxis and treatment of immune system deficiency in humans and animals” (priority 2004, published 2006).
